Data: US20260327263A1, “Anti-Bacterial Peptides” (priority 2023, published 2026)
Several values for one entry are separate records, joined by “and”; a condition that tells them apart may be missing. Identical values can stand only once. Entries after “also recorded” stand apart in the source; their conditions may differ. Where no end group is shown, it is not given here.

Columns and labels:
[1] = test system: Staphylococcus aureus (SA); assay: Time-kill assay, Staphylococcus aureus; type: cell-based; conditions: for time to kill SA (in words): 1X MBC; for Time kill SA, >99% killing: at 1X MBC, * indicates killing within seconds
Protocol: (§1) The bactericidal abilities of the variant peptides are not only effective, but also fast-acting. […] The killing kinetics are detailed in Table 11 below.
(§2) Pseudomonas aeruginosa (PA) and Staphylococcus aureus (SA) strains were grown as per CLSI guidelines. AMPs were added to the bacterial cultures at their 1X MBC concentrations. Upon treatment, the bacterial cultures were enumerated for viable counts immediately within 1 min, 5 min, 15 min, 30 min and 60 min post-treatments.

[2] = test system: Pseudomonas aeruginosa (PA); assay: Time-kill assay, Pseudomonas aeruginosa; type: cell-based; conditions: for time to kill PA (in words): 1X MBC; for Time kill PA, >99% killing: at 1X MBC, * indicates killing within seconds
Protocol: as §1, §2

[3] = test system: Pseudomonas aeruginosa (PA); assay: Broth microdilution anti-bacterial assay (CLSI), Pseudomonas aeruginosa; type: cell-based, Pseudomonas aeruginosa (ATCC 14213); conditions: for anti-bacterial activity (in words): PA and SA; for MIC / MBC: PA; for MIC: overnight, 37° C., ≥99% inhibition; for MBC: ≥99% killing
Protocol: (§3) To evaluate their anti-bacterial potency, broth microdilution method as per the CLSI guidelines 1 was used. […] The anti-bacterial potency of the tested agents is quantified using minimum inhibitory concentration (MIC) and minimum bactericidal concentration (MBC). […] To obtain the MBC data, 1X, 2X and 4× MIC of the peptide variants were plated to obtain the number of viable colonies compared to the original inoculum.
(§4) Pseudomonas aeruginosa (ATCC 14213, PA), and methicillin resistant Staphylococcus aureus (BAA1717-USA 300, SA) were obtained from The American Type Culture Collection (ATCC).
(§5) Examination of the potency of modified short peptides against PA and SA strains was performed by using the broth microdilution protocol from the Clinical and Laboratory Standards Institute (CLSI) guidelines (CLSI 2012) as described. Briefly, five freshly plated bacteria colonies were grown in cation adjusted MH2 broth (BD Biosciences) in a shaker incubator at 37° C., 220 RPM. Cells were grown to an optical density (OD600) of ~0.2 measured using a Microplate Spectrophotometer (Molecular Devices Spectra Max Plus). 100 μL of microbial culture containing ~5×10^5 CFU/mL of bacteria in the respective broths were introduced into each well containing 100 μL of peptides and incubated overnight at 37° C. Next, to check the bactericidal effects, 100 μL from each well was transferred and spread on sterile MH2 agar plates. The plates were incubated overnight at 37° C. and the number of colonies forming units (CFU) were calculated the following day. Readings of bacteria grown in media without any treatments were normalized to 100% as media control. For the mixed infection study, three freshly plated bacteria colonies each from PA, SA and ST plates were grown together in cation adjusted MH2 broth and proceeded as described above.

[4] = test system: Staphylococcus aureus (SA); assay: Broth microdilution anti-bacterial assay (CLSI), Staphylococcus aureus; type: cell-based; conditions: SA; for MIC: overnight, 37° C., ≥99% inhibition; for MBC: ≥99% killing
Protocol: as §3, §4, §5

human keratinocytes = assay: 2D scratch assay, keratinocyte migration; type: cell-based; conditions: for migration speed of keratinocytes: 48 h, E1AM2 3.125-12.5 μM, Q19L 3.125-6.25 μM
Protocol: Wound healing is directly associated with the migration speed of keratinocytes. The migration speed of human keratinocytes in presence of E1AM2, V8L (SEQ ID NO: 19), and Q19L variants is tested in comparison with pexiganan (SEQ ID NO: 54). Migration speed of human keratinocytes assessed in a 2D scratch assay at D 0 and D 2 timepoints. Decrease in wound area over time was measured by applying an ImageJ plugin ‘Wound Healing Size Tool’ on bright-field images. The change in wound area over the course of 48 hours was used as a measure of the migration speed of keratinocytes. Each value is the mean±SD (n=3). The p-value was calculated using ANOVA for multiple comparisons (Dunnett's multiple comparisons test). **** p<0.0001. *** p<0.001. ** p <0.01. * p<0.05. […] Both peptides healed wound faster within their respective MIC and MBC concentrations. […] SEQ ID NO: 27=Q19L; SEQ ID NO: 2=E1AM2; SEQ ID NO: 19=V8L.
(§6) Wound closure was compared with the untreated samples (circle, red highlight). For improved clarity, error bars have been omitted from this representation. […] Each value is the mean±SD (n=3). Statistical significance was assessed using ANOVA for multiple comparisons (Dunnett's multiple comparisons test). **** p<0.0001, *** p<0.001, ** p<0.01, *p<0.05, ns denotes nonsignificance, p >0.05.
Wound areas of the human keratinocyte culture were assessed in presence of peptides in a 2D scratch assay at the 0 hour, and 48-hour time points by applying an ImageJ plugin, ‘Wound Healing Size Tool’ on brightfield images. Quantification of wound width was calculated by obtaining the averaged Euclidean distance between each paired pixel at the lateral wound edges. The change in wound area over the course of 48 hours was used as a measure of the migration speed of keratinocytes.
Using the inverted BioTek Lionheart LX Automated Microscope, brightfield images were obtained at 4× magnification to observe the wound area at timepoints 0 (before treatment) and 48 hours-post treatment. Microscopy settings were maintained as focus offset (781.3 μm), illumination (2), integration Time (21) with no gain. To cover the entire well, montage images of four rows by three columns were stitched together by enabling the “image stitching” function and images were saved in tiff-format.

[5] = test system: Staphylococcus aureus (SA); assay: Antimicrobial resistance evolution assay, SA; type: cell-based; conditions: serial passaging; resistance = >4-fold MIC change
From the text: (§7) The development of antimicrobial resistance is defined by greater than a 4-fold change to their initial minimum inhibitory concentration (MIC) at day 1. Exemplary bacteria strains Pseudomonas aeruginosa (PA) and Staphylococcus aureus (SA) are subjected to continuous daily serial passaging over several days, with treatment of exemplary variant peptides E1AM2 (SEQ ID NO: 2) and Q19L (SEQ ID NO: […]) at subinhibitory concentrations. […] The treatments were discontinued when the MIC increased by more than four-fold from the initial MIC or when MIC reached >100 μM.
(§8) Briefly, sequential passaging of PA, and SA cells was done with sub-inhibitory concentrations of antibiotics or E1AM2 up to 4 weeks. The cells grown in those concentrations of antibiotics or peptides were diluted to A600 nm (OD600) of ~0.2 and serially passaged daily with the same concentrations at 37° C. with agitation at 24 h intervals.

[6] = test system: Pseudomonas aeruginosa PA BAA-2110; assay: Broth microdilution, PA BAA-2110 (lung infection in cystic fibrosis); type: cell-based, Pseudomonas aeruginosa (BAA-2110); conditions: PA BAA-2110
Protocol: (§9) Bacteria strains involved in lung infection in cystic fibrosis patients (PA-BAA 2110) and ear-eye infections (PA-CRM 9027) are treated with exemplary variant peptides, such as E1AM2 and Q19L.
as §5

[7] = test system: Pseudomonas aeruginosa PA CRM-9027; assay: Broth microdilution, PA CRM-9027 (ear-eye infections); type: cell-based, Pseudomonas aeruginosa (CRM-9027); conditions: PA CRM-9027
Protocol: as §9, §5

[8] = test system: Pseudomonas aeruginosa (PA); assay: Antimicrobial resistance evolution assay, PA; type: cell-based; conditions: for development of antimicrobial resistance, PA: serial passaging, 28 days, resistance = >4-fold MIC change
From the text: as §7, §8

Hemolysis assay = type: cell-based, human; conditions: human, red blood cells; at respective MIC/MBC concentrations; melittin 3.125 μM = 100%
Protocol: (§10) The hemolytic score of the peptide variants and pexiganan (SEQ ID NO: 54) are compared to a strong hemolytic peptide, melittin 12 as a control. […] The minimum peptide concentration corresponding to 10% hemolysis (minimal hemolysis concentration, HC) of E1AM2=50 μM, V8LQ19L=12.5 μM, V8LQ19L C-2=3.125 μM, and pexiganan=12.5 μM respectively. Readings of the melittin at 3.125 μM were normalised to 100%.
(§11) Examination of hemolytic activity of ultra-short peptides was performed by isolating the red blood cells (RBCs) from human blood samples by centrifugation (1000 g, 4° C., 10 min) and resuspension in 27 mL PBS. This washing step was repeated four times before the RBCs were diluted to a 10% (v/v) suspension. […] Hemolytic properties of E1AM2 and pexiganan were evaluated with melittin used as a positive control, and PBS as a negative control. The plates were incubated at 37° C., for 30 min and then centrifuged (1258 g, 4° C., 6 min). 75 μL of supernatant were transferred into a flat-bottom clear 96-well plate and the OD576 nm was read. Readings of the melittin sample at 3.125 μM were normalized to 100%.

[9] = test system: human red blood cells (hRBCs); assay: Hemolysis assay; type: cell-based; conditions: hRBCs; for minimum concentration corresponding to 10% hemolysis (HC): 37° C., 30 min; for hemolysis (in words): FIG. 8 up to 100 μM
Protocol: as §10, §11

[10] = test system: human keratinocytes (HaCaT); assay: Cell proliferation assay, HaCaT keratinocytes; type: cell-based
Protocol: as §6
CyQUANT™ Direct Cell Proliferation Assay (ThermoFisher Scientific, Catalogue) was performed as per manufacturer's instructions to determine the safety of the peptides to human keratinocytes. […] The fluorescence intensity and number of stained cells were determined using the LionHeart FX Automated Microscope (BioTek, VT, USA).

fibroblasts (HFF-1) = assay: Cell proliferation assay, HFF-1 fibroblasts; type: cell-based; conditions: 24 h
[11] = test system: mixed bacterial infection (PA, SA and ST); assay: Broth microdilution, mixed bacterial infection; type: cell-based; conditions: mixed infection
Protocol: Chronic wounds mostly present mixed infections where numerous pathogens colonize together.
as §5

[12] = Comparison of AMPs in clinical trial with V8LQ19L (Table 13); conditions: ✓ / X

Compound | time to kill SA (in words) [1] | Time kill SA, >99% killing [1] | time to kill PA (in words) [2] | Time kill PA, >99% killing [2] | anti-bacterial activity (in words) [3] | MIC [3] | MBC [3] | MIC [4] | MBC [4] | migration speed of keratinocytes (human keratinocytes) | MBC [6] | MIC [6] | MBC [7] | MIC [7] | development of antimicrobial resistance, PA [8] | minimum concentration corresponding to 10% hemolysis (HC) [9] | hemolysis (in words) [9] | further results
KKLLKKWLKLSKKALKLAQSL-NH2 [V8L] | within minutes | >30 to 60 min | within minutes | 1* min | reduction in the minimum inhibitory concentration (MIC) and minimum bactericidal concentration (MBC) values | 3.125 µM | 3.125 µM | 3.125 µM | 3.125 µM | maintained keratinocyte migration speed |  |  |  |  |  |  |  | 
KKLLKKWVKLSKKALKLALSL-NH2 [Q19L] | within minutes | 1 min | within minutes | >1.5 min | reduction in the minimum inhibitory concentration (MIC) and minimum bactericidal concentration (MBC) values | 3.125 µM | 3.125 µM and 6.25 µM | 3.125 µM | 3.125 µM | increase keratinocyte migration; also recorded: increased the migration speed of keratinocytes significantly | 6.25 µM | 6.25 µM | 6.25 µM | 6.25 µM | prevented resistance acquisition |  |  | development of antimicrobial resistance, SA [5]: prevented resistance development; migration delay of keratinocytes (human keratinocytes; only at highest concentrations (100 μM)): significant migration delay
KKLLKKWLKLSKKALKLAL-NH2 [V8LQ19L C-2] |  |  |  |  | strong potency | 1.56 µM | 1.56 µM | 1.56 µM | 1.56 µM |  |  |  |  |  |  | 3.125 µM | do not cause hemolysis | hemolysis at 0.5 h (Hemolysis assay): ~0%
OO [H2O2, hydrogen peroxide, reference compound] |  |  |  |  |  |  |  |  |  |  |  |  |  |  |  |  |  | cytotoxicity to HaCaT ([10]; 24 h, up to highest tested concentrations (peptide), 3% (H2O2)): significant cytotoxicity; cytotoxicity to HFF-1 (fibroblasts (HFF-1); up to highest tested concentrations (peptide), 3% (H2O2)): significant cytotoxicity
GIGKFLKKAKKFGKAFVKILKK-NH2 [Pexiganan, reference compound] |  | 1 min | took the longest time to kill >99% PA | >5 to 15 min |  | 3.125 µM | 6.25 µM | 6.25 µM and 6.12 µM | 12.5 µM |  | 6.25 µM | 3.125 µM | 3.125 µM | 3.125 µM | developed resistance | 12.5 µM | none of the peptide variants or pexiganan caused significant hemolysis | MBC [11]: 12.5 µM; MIC [11]: 6.25 µM; Broad spectrum activity [12]: ✓; Healing support [12]: ✓; Cytotoxicity at high concentration (100 μM) ([10]; 100 μM, cell line not named in Table 15): Cytotoxic; MIC ([3]; listed as PEX): 3.128 µM and 3.125 µM; MBC ([3]; listed as PEX): 6.25 µM and 8.25 µM; HFF-1 proliferation (fibroblasts (HFF-1); certain concentrations): enhanced proliferation; AMR prevention / resistance induction ([8]; Table 15: in PA and SA, bacteria not named): Gives rise to AMR; MIC/MBC relative to E1AM2, SA [4]: two-higher value; MIC ([4]; listed as PEX): 6.25 µM and 6.26 µM; MBC ([4]; listed as PEX): 12.8 µM and 12.5 µM and 12.6 µM
